Source: US8383642B2, “Spiropiperidine compounds” (Eli Lilly and Company, priority 2009, dated 2013)

What was measured:
human GPR40 = target: T1, human GPR40 (Homo sapiens, UniProt O14842); assay: Calcium Flux Primary Assay; assay type: cell-based
T1 construct: expressed in transfected cells; host or cells: HEK293
Procedure: HEK293 cells over expressing the human GPR40 cDNA maintained in Dulbecco's modified Eagle's medium with F12 medium in 3:1 ratio supplemented with 10% FBS and 800 μg/ml geneticin at 37° C. and 5% CO2 are employed for the study. Agonist assays are performed using a Calcium 4 Dye assay kit (Molecular Devices) in the presence (0.1%) or absence of fatty acid free BSA in the assay buffer (1×HBSS (Hank's Balanced Salt Solution) & 20 mM HEPES (4-(2-hydroxyethyl)-1-piperazineethanesulfonic acid). Receptor activation is measured as an increase in intracellular calcium using the Fluorometric Imaging Plate Reader (FLIPR). Maximum change in fluorescence over the base line is used to determine agonist response. EC50 (effective concentration at half the maximal response) value of the compound is calculated using Excel Fit software (version 4; IDBS) by plotting concentration vs relative fluorescence units (RFUs).

PPARα = target: T2, PPARα (Homo sapiens, UniProt Q07869); assay: PPARα binding assay (SPA); details: concentrations up to 10 μM
T2 construct: made in house; host or cells: HEK293 (cell lysates)
T2 sequence (Q07869 1-468): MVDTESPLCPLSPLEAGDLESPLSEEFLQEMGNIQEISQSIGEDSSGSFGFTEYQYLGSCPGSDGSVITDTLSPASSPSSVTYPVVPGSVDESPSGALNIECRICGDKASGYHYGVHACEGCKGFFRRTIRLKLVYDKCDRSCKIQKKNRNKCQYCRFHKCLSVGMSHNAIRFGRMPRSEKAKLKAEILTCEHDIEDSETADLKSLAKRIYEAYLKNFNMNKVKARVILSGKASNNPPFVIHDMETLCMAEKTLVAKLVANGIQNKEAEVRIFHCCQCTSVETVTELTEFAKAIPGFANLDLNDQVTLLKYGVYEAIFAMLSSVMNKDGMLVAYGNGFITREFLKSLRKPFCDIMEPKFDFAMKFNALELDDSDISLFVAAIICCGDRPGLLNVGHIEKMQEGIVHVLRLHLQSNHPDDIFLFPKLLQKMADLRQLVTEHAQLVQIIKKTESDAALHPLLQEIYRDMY
T2 sequence (P19793 1-462 partner): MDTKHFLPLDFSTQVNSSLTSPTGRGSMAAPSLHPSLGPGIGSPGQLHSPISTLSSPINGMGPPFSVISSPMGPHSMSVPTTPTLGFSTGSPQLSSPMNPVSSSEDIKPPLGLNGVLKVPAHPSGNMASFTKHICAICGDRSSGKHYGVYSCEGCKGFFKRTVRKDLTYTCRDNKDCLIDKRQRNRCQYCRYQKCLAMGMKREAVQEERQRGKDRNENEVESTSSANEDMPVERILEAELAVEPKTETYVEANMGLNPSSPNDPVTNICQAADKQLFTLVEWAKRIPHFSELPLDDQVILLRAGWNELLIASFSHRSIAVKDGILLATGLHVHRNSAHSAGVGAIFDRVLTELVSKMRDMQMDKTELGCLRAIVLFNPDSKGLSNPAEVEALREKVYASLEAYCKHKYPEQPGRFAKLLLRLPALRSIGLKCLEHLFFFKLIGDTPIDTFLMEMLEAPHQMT
Procedure: (§1) Because GPR40 is known to be activated by ligands to PPARγ exemplified compounds are examined in PPARα, PPARδ, and PPARγ binding and functional assays to determine the selectivity of exemplified compounds for GPR40. Compounds exemplified herein are tested essentially as described below for PPAR binding and generally have binding values greater than 1000 nM with 10 μM concentrations of test compound and are thus considered negative for PPAR activity.
(§2) Binding affinities of compounds for the PPAR α, δ, and γ receptors are assessed using Scintillation Proximity Assay (SPA) technology. Biotinylated oligonucleotide Direct Repeat 2 (DR2) is used for binding the receptors to Yttrium silicate streptavidin-coated SPA beads. […] Non-specific binding is determined in the presence of 10,000 nM of the unlabeled PPAR α/δ dual agonist reference compound for the alpha and delta receptor assays and the PPARγ agonist reference compound for the gamma receptor assay. The binding reaction (100 μl per well in a 96 well [Costar 3632] plate) is incubated for 10 h and counted disintegration per minutes (dpm) on a Wallac Microbeta. Receptor binding affinity (IC50) for the compounds is determined by fitting an 11 point concentration-response curve with a 4-parameter logistic equation. Ki, is determined from the IC50 using the Cheng-Prussoff equation and Kd determined by saturation binding. […]

PPARδ = target: T3, PPARδ (Homo sapiens, UniProt Q03181); assay: PPARδ binding assay (SPA); details: concentrations up to 10 μM
T3 construct: made in house; host or cells: HEK293 (cell lysates)
T3 sequence (Q03181 1-441): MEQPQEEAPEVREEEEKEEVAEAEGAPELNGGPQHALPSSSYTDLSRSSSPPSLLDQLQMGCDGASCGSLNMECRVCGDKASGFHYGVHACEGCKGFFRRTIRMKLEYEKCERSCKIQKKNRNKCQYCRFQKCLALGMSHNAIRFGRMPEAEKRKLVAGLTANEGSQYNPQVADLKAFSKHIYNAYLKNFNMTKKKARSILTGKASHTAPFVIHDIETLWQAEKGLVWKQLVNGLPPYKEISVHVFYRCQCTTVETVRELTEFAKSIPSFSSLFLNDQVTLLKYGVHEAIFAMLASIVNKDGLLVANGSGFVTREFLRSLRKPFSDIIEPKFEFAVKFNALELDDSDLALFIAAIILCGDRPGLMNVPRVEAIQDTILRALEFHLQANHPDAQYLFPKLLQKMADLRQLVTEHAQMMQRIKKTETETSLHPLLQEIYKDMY
T3 sequence (P19793 1-462 partner): T2 sequence (P19793 1-462 partner)
Procedure: as §1, §2

T1 sequence (O14842 whole entry): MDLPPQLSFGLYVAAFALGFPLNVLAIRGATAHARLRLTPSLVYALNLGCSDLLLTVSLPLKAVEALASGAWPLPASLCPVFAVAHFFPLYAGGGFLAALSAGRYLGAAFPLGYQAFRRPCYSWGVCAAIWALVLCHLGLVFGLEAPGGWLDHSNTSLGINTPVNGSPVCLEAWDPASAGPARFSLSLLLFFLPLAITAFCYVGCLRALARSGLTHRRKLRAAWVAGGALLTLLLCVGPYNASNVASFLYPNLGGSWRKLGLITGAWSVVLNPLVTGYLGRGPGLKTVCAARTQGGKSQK

With `CC#C[C@@H](CC(=O)O)c1ccc(OCc2ccc(CN3CCC4(C=Cc5ccccc54)CC3)cc2)cc1` [Example 1, (3S)-3-(4-{[4-(1′H-Spiro[indene-1,4′-piperidin]-1′-ylmethyl)benzyl]oxy}phenyl)hex-4-ynoic acid] the EC50 (human GPR40; HEK293 cells over expressing human GPR40, FLIPR calcium) was 186 nM, the efficacy (human GPR40; maximal response compared to the natural ligand, linoleic acid) was 91+/−10% and the binding detected (PPARα) was “no binding is detected”. For the same compound, the binding detected (PPARδ) was “no binding is detected”.
